Results taken from patent publication US10526322B2, “Inhibitors of kidney-type glutaminase, GLS-1” (CORNELL UNIVERSITY, priority 2014, dated 2020).

Columns and labels:
[1] = target: T1, 488-GAC and QSY9-GAC (Mus musculus, UniProt D3Z7P3); assay: FRET assay for GAC tetramer formation; format: binding; settings: 25 nM 488-GAC and 25 nM QSY9-GAC
T1 construct: (residues 72-603) was cloned into a pET23a vector; His-tag with thrombin cleavage site (N, cleaved yes); made in house
T1 sequence (D3Z7P3 72-603 isoform D3Z7P3-2): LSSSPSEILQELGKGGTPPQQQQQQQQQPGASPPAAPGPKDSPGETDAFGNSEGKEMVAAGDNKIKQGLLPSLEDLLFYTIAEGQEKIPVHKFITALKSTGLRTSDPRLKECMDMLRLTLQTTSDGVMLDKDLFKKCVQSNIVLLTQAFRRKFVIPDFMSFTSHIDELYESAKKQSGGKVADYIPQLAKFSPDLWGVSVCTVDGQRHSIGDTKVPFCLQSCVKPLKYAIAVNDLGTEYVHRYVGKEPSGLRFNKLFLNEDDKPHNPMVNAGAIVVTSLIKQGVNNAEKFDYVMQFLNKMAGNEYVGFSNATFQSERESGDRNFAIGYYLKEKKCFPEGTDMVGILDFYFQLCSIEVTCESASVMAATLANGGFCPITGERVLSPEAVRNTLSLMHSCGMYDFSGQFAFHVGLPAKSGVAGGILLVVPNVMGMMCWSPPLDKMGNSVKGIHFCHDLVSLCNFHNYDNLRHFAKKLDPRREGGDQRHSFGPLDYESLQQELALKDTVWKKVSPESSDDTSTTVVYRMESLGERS
Procedure: Fluorescence experiments were performed using a Varian Cary Eclipse Fluorometer in the counting mode. Excitation and emission wavelengths were 490 and 520 nm, respectively. Experiments were all performed using 1-mL samples with continuous stirring at 20° C. in 50 mM Tris-Acetate, pH 8.5, 0.1 mM ethylenediamine tetraacetic acid (EDTA). For wild-type (WT) GAC titrations in the absence of inorganic phosphate, 25 nM 488-GAC was equilibrated with 25 μL of QSY9-GAC (at varying concentrations) and allowed to equilibrate for 10 minutes, at which point 75 μL of the appropriate concentration of unlabeled WT GAC was added to provide a 10-fold excess over labeled-GAC. To test whether the purified GAC mutants can form oligomers with WT GAC, 200 nM QSY9-GAC (D391K) or 200 nM QSY9-GAC (D391K, K316E, R459E) was added to an equilibrated sample of 20 nM 488-WT GAC. When assaying the effects of BPTES and 968 on oligomer formation, BPTES or 968 was added following equilibration of a sample of 25 nM QSY9-WT GAC and 25 nM 488-WT GAC. Both BPTES and 968 were prepared in DMSO, and appropriate dilutions were made so that less than 2% (v/v) DMSO was added to an experimental sample.

[2] = target: T2, WT GAC (Mus musculus, UniProt D3Z7P3); assay: In vitro photo cross linking of SU-22 and purification of the conjugate; format: binding; settings: 100 nM WT GAC, 10 μM SU-22, UV, A350/A280
T2 construct: (residues 72-603) was cloned into a pET23a vector; made in house
T2 sequence (D3Z7P3 72-603 isoform D3Z7P3-2): T1 sequence (D3Z7P3 72-603 isoform D3Z7P3-2)
Procedure: Conditions of in vitro cross linking of WT GAC, and the K316E/D391K/R459E GAC mutant were adapted for efficient cross linking and purification of the cross linked protein product. WT GAC and the K316E/D391K/R459E GAC mutant, both containing the N-terminal His-tag, were diluted to a concentration of 100 nM in 20 mM Tris-HCl (pH=8.6) 100 mM NaCl, upon which 10 μM of SU-22 was added. Following a preincubation time of 5 minutes, samples were exposed to UV light under a hand held 500 W UV lamp to initiate the photo cross linking. Immediately following, bovine serum albumin (BSA, Sigma) was added to a final concentration of 2 mg/mL to help stabilize the cross linked product and to bind excess un-reacted SU-22. To isolate the cross linked product, 2.5 mg cobalt agarose beads (Clontech) were added and the solution was gravity filtered. […] The purified cross linked protein was then concentrated using spin columns with a 30 kD molecular weight cutoff and quantified using UV-vis spectroscopy, where the protein was quantified using the A280 (ε280=38,850 M−1 cm−1) and the cross-linked SU-22 using the A350 (ε350=18,900 M−1 cm−1). […]

ratio of cross linked SU-22 to protein [2] | SMILES | effect on GAC tetramer formation (488-GAC emission in mixture with QSY9-GAC) [1]
– | CN(C)c1ccc(C2Nc3ccc4ccccc4c3C3=C2C(=O)CC(C)(C)C3)cc1Br (centres unmarked) [Compound 968] | does not appear to interfere with GAC tetramer formation
0.52 | CC1(C)CC(=O)C2=C(C1)c1c(ccc3cc4ccccc4cc13)NC2c1ccc(N=[N+]=[N-])cc1 (centres unmarked) [SU-22] | –
